Experimental data taken from patent US20240325521A1, “IONIZABLE LIPID COMPOUND FOR NUCLEIC ACID DELIVERY AND LNP COMPOSITION THEREOF” (priority 2021, published 2024).

Assays:
[1] = Detection of novel coronavirus LNP-mRNA vaccine after encapsulation with different cationic lipids (encapsulation efficiency, particle size, PDI, Zeta potential); type: physicochemical; details: compared with control cationic lipids III and IV
Hep3B cells = type: cell-based; details: compared with cationic lipids III and IV
[2] = 25° C., up to 4 weeks; compared with cationic lipids III and IV

| Structure (SMILES) | encapsulation effect on mRNA antigen [1] | in-vitro transfection efficiency (Hep3B cells) | stability of LNP-mRNAs prepared by the cationic lipid [2] |
| --- | --- | --- | --- |
| CCCCCCCCC(CCCCCC)COC(=O)OCCCCCCN(CCCCO)CCCCCCOC(=O)OCC(CCCCCC)CCCCCCCC (stereo not drawn) [Compound 1] | better encapsulation effect | better | better |
| CCCCCCCCCCCOC(=O)OCCCCCN(CCO)CCCCCCCOC(=O)OC(CCCCCCCC)CCCCCCCC [Compound 2] | better encapsulation effect | better | better |
